Test results as given in patent publication US9040516B2, “Uracil derivative and use thereof for medical purposes” (SUMITOMO DAINIPPON PHARMA CO., LTD., priority 2011, dated 2015).
Structures can show the parent of a compound that is named as a salt.

Biological target: T1, human neutrophil elastase (Homo sapiens, UniProt P08246)
T1 construct: purchased Elastin Products Company
T1 sequence (P08246 30-267): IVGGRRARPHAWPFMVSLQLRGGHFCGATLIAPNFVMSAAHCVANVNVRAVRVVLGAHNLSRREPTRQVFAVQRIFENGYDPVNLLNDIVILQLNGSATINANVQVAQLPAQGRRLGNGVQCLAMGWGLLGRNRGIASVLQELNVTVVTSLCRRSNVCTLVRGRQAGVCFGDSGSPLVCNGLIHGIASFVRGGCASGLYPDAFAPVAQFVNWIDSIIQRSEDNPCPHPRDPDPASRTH
Experiment: Inhibitory action against human neutrophil elastase (Test Example 1; fluorogenic substrate MeOSuc-AAPV-AMC, buffer with 2M NaCl, 0.002% Brij-35)
Assay type: biochemical
Details: 37° C., read-out: IC50 value (compound concentration required for 50% inhibition of human neutrophil elastase)
Description: Assay buffer (0.4 unit/ml HNE (human neutrophil elastase, available from Elastin Products Company), 200 mM HEPES [N-(2-hydroxyethyl)piperazine-N′-(2-ethanesulfonic acid)], pH 7.5, 2M NaCl, 0.002% Brij-35) 100 μl, water for injection 40 μl and DMSO (dimethyl sulfoxide) solution of the present compound 20 μl were mixed in a 96 well plate and the mixed solutions were pre-incubated at 37° C. for five minutes. After pre-incubation, MeOSuc-AAPV-AMC (methoxysuccinyl-alanyl-alanyl-prolyl-valyl-aminomethyl cumaride (available from Sigma Aldrich Co.) solution as fluorogenic substrate (which was dissolved in 10% DMSO solution so as to adjust to 0.5 mM) 40 μl was added to the above-prepared mixed solution so as to initiate the reaction, and the mixture was incubated at 37° C. for five minutes. The fluorescence intensity of AMC was measured at an excitation wavelength of 380 nm and a fluorescence wavelength of 460 nm and the inhibition ratio was determined.

Row | IC50 [nM] | SMILES
1 | 4.3 | Cc1c(-c2ccnn2-c2ccc(C#N)cc2)c(=O)n(CCCCCN)c(=O)n1-c1cccc(C(F)(F)F)c1 [Example 85, 4-[5-[3-(5-Aminopentyl)-6-methyl-2,4-dioxo-1-(3-trifluoromethylphenyl)-1,2,3,4-tetrahydropyrimidin-5-yl]-1H-pyrazol-1-yl]benzonitrile hydrochloride]
2 | 123 | Cc1c(-c2ccnn2-c2ccc(C#N)cc2)c(=O)n(CC(=O)OCc2ccccc2)c(=O)n1-c1cccc(C(F)(F)F)c1 [Example 6, 2-[5-[1-(4-cyanophenyl)-1H-pyrazol-5-yl]-4-methyl-2,6-dioxo-3-(3-trifluoromethylphenyl)-2,3-dihydropyrimidin-1(6H)-yl]acetic acid benzyl ester]
3 | 170 | CCOC(=O)CCCn1c(=O)c(-c2ccnn2-c2ccc(C#N)cc2)c(C)n(-c2cccc(C(F)(F)F)c2)c1=O [Example 5, 4-[5-[1-(4-cyanophenyl)-1H-pyrazol-5-yl]-4-methyl-2,6-dioxo-3-(3-trifluoromethylphenyl)-2,3-dihydropyrimidin-1(6H)-yl]butanoic acid ethyl ester]
4 | 114 | Cc1c(-c2ccnn2-c2ccc(C#N)cc2)c(=O)n(CCN(C)C)c(=O)n1-c1cccc(C(F)(F)F)c1 [Example 69, 4-[5-[3-(2-Dimethylaminoethyl)-6-methyl-2,4-dioxo-1-(3-trifluoromethylphenyl)-1,2,3,4-tetrahydropyrimidin-5-yl]-1H-pyrazol-1-yl]benzonitrile]
5 | 150 | Cc1c(-c2ccnn2-c2ccc(C#N)cc2S(C)(=O)=O)c(=O)n(C)c(=O)n1-c1cccc(C(F)(F)F)c1 [Example 102, 4-[5-[3,6-Dimethyl-2,4-dioxo-1-(3-trifluoromethylphenyl)-1,2,3,4-tetrahydropyrimidin-5-yl]-1H-pyrazol-1-yl]-3-(methylsulfonyl)benzonitrile]
6 | 147 | Cc1c(-c2ccnn2-c2ccc(C#N)cc2)c(=O)n(CCCCO)c(=O)n1-c1cccc(C(F)(F)F)c1 [Example 84, 4-[5-[3-(4-hydroxybutyl)-6-methyl-2,4-dioxo-1-(3-trifluoromethylphenyl)-1,2,3,4-tetrahydropyrimidin-5-yl]-1H-pyrazol-1-yl]benzonitrile]
7 | 232 | Cc1c(-c2ccnn2-c2ccc(C#N)cc2)c(=O)n(CC(N)=O)c(=O)n1-c1cccc(C(F)(F)F)c1 [Example 76, 2-[5-[1-(4-cyanophenyl)-1H-pyrazol-5-yl]-4-methyl-2,6-dioxo-3-(3-trifluoromethylphenyl)-2,3-dihydropyrimidin-1(6H)-yl]-acetamide]
8 | 111 | CSc1cc(C#N)ccc1-n1nccc1-c1c(C)n(-c2cccc(C(F)(F)F)c2)c(=O)n(C)c1=O [Example 36, 4-[5-[3,6-dimethyl-2,4-dioxo-1-(3-trifluoromethylphenyl)-1,2,3,4-tetrahydropyrimidin-5-yl]-1H-pyrazol-1-yl]-3-(methylthio)benzonitrile]
9 | 312 | Cc1c(-c2ccnn2-c2ccc(C#N)cc2)c(=O)n(CCCC(=O)O)c(=O)n1-c1cccc(C(F)(F)F)c1 [Example 74, 4-[5-[1-(4-Cyanophenyl)-1H-pyrazol-5-yl]-4-methyl-2,6-dioxo-3-(3-trifluoromethylphenyl)-2,3-dihydropyrimidin-1(6H)-yl]butanoic acid]
10 | 22300 | CNC(=O)c1cccc(-n2c(C)c(-c3ccnn3-c3ccc(C#N)cc3)c(=O)n(C)c2=O)c1 [Example 105, 3-[5-[1-(4-cyanophenyl)1H-pyrazol-5-yl]-3,6-dimethyl-2,4-dioxo-3,4-dihydropyrimidin-1(2H)yl]-N-methylbenzamide]

Biological target: T1, human neutrophil elastase
Experiment: Inhibitory action 2 against human neutrophil elastase (Test Example 2; fluorogenic substrate MeOSuc-AAPV-AMC, buffer with 400 mM NaCl, 0.2 mg/ml BSA)
Assay type: biochemical
Details: 37° C., read-out: IC50 value (compound concentration required for 50% inhibition of human neutrophil elastase)
Description: Assay buffer (0.4 unit/ml HNE (human neutrophil elastase, available from Elastin Products Company), 200 mM HEPES [N-(2-hydroxyethyl)piperazine-N′-(2-ethanesulfonic acid)], pH 7.5, 400 mM NaCl, 0.2 mg/ml BSA (bovine serum albumin)) 100 μl, water for injection 20 μl and 1% DMSO (dimethyl sulfoxide) solution of the present compound 20 μl were mixed in a 96 well plate and the mixed solutions were pre-incubated at 37° C. for five minutes. After pre-incubation, MeOSuc-AAPV-AMC (methoxysuccinyl-alanyl-alanyl-prolyl-valyl-aminomethyl cumaride (available from Sigma Aldrich Corp.) solution as fluorogenic substrate (which was dissolved in 10% DMSO solution so as to adjust to 0.5 mM) 40 μl was added to the above-prepared mixed solution so as to initiate the reaction, and the mixture was incubated at 37° C. for five minutes. The fluorescence intensity of AMC was measured at an excitation wavelength of 380 nm and a fluorescence wavelength of 460 nm and the inhibition ratio was determined.

Row | SMILES | IC50 [nM]
11 | Cc1c(-c2c(C(=O)OCCCCN(C)C)cnn2-c2ccc(C#N)cc2)c(=O)n(C)c(=O)n1-c1cccc(C(F)(F)F)c1 [Example 187, 4-(dimethylamino)butyl 1-(4-cyanophenyl)-5-(3,6-dimethyl-2,4-dioxo-1-(3-trifluoromethylphenyl)-1,2,3,4-tetrahydropyrimidin-5-yl)-1H-pyrazole-4-carboxylate] | 19.4
12 | Cc1c(-c2ccnn2-c2ccc(C#N)cc2)c(=O)n([C@H](C)CO)c(=O)n1-c1cccc(C(F)(F)F)c1 [Example 55, (R)-4-(5-(3-(1-hydroxypropan-2-yl)-6-methyl-2,4-dioxo-1-(3-(trifluoromethyl)phenyl)-1,2,3,4-tetrahydropyrimidin-5-yl)-1H-pyrazol-1-yl)benzonitrile] | 4.9
13 | CCn1c(=O)c(-c2c(C(=O)N3CC(O)C3)cnn2-c2ccc(C#N)cc2)c(C)n(-c2cccc(C(F)(F)F)c2)c1=O [Example 156] | 10

Second part, the molecule after the results:

Row | IC50 [nM] | SMILES
14 | 29.7 | CCn1c(=O)c(-c2c(C(C)(C)N)cnn2-c2ccc(C#N)cc2)c(C)n(-c2cccc(C(F)(F)F)c2)c1=O [Example 297, 4-(4-(2-aminopropane-2-yl)-5-(3-ethyl-6-methyl-2,4-dioxo-1-(3-trifluoromethylphenyl)-1,2,3,4-tetrahydropyrimidin-5-yl)-1H-pyrazol-1-yl)benzonitrile]
15 | 16.7 | Cc1c(-c2c(Cl)cnn2-c2ccc(C#N)cc2)c(=O)n(C)c(=O)n1-c1cccc(C(F)(F)F)c1 [Example 360, 4-(4-chloro-5-(3,6-dimethyl-2,4-dioxo-1-(3-trifluoromethylphenyl)-1,2,3,4-tetrahydropyrimidin-5-yl)-1H-pyrazol-1-yl)benzonitrile]
16 | 18.6 | COC(=O)c1cnn(-c2ccc(C#N)cc2)c1-c1c(C)n(-c2cccc(C(F)(F)F)c2)c(=O)n(C)c1=O [Example 188]
17 | 14 | Cc1c(-c2c(C#N)cnn2-c2ccc(C#N)cc2)c(=O)n([C@@H]2CCN(C)C2)c(=O)n1-c1cccc(C(F)(F)F)c1 [Example 367]
18 | 23.7 | Cc1c(-c2c(S(C)(=O)=O)cnn2-c2ccc(C#N)cc2)c(=O)n(C)c(=O)n1-c1cccc(C(F)(F)F)c1 [Example 265]
19 | 14.7 | Cc1c(-c2ccnn2-c2ccc(C#N)cc2)c(=O)n(C(C)CCNc2ccncc2)c(=O)n1-c1cccc(C(F)(F)F)c1 (centres unmarked) [Example 408]
20 | 9.6 | Cc1c(-c2ccnn2-c2ccc(C#N)cc2)c(=O)n([C@H](C)CS(N)(=O)=O)c(=O)n1-c1cccc(C(F)(F)F)c1 [Example 324, (R)-2-(5-(1-(4-Cyanophenyl)-1H-pyrazol-5-yl)-4-methyl-2,6-dioxo-3-(3-trifluoromethylphenyl)-2,3-dihydropyrimidin-1(6H)-yl)propane-1-sulfonamide]
21 | 12.9 | Cc1c(-c2ccnn2-c2ccc(C#N)cc2)c(=O)n(C(C)CCN2CCOCC2)c(=O)n1-c1cccc(C(F)(F)F)c1 (centres unmarked) [Example 399]
22 | 23.1 | Cc1c(-c2c(S(=O)(=O)O)cnn2-c2ccc(C#N)cc2)c(=O)n(C)c(=O)n1-c1cccc(C(F)(F)F)c1 [Example 191, 1-(4-cyanophenyl)-5-(3,6-dimethyl-2,4-dioxo-1-(3-trifluoromethylphenyl)-1,2,3,4-tetrahydropyrimidin-5-yl)-1H-pyrazole-4-sulfonic acid]
23 | 25.1 | Cc1c(-c2c(C3(O)CCS(=O)(=O)CC3)cnn2-c2ccc(C#N)cc2)c(=O)n(C)c(=O)n1-c1cccc(C(F)(F)F)c1 [Example 293]
24 | 9.3 | Cc1c(-c2c(S(N)(=O)=O)cnn2-c2ccc(C#N)cc2)c(=O)n(C(C)C)c(=O)n1-c1cccc(C(F)(F)F)c1 [Example 206]
25 | 42.7 | CCn1c(=O)c(-c2c(C3(N)CCC3)cnn2-c2ccc(C#N)cc2)c(C)n(-c2cccc(C(F)(F)F)c2)c1=O [Example 298]
26 | 9.3 | Cc1c(-c2c(S(N)(=O)=O)cnn2-c2ccc(C#N)cc2)c(=O)n(C)c(=O)n1-c1cccc(C(F)(F)F)c1 (single isomer, unassigned) [Example 209, (+)-1-(4-cyanophenyl)-5-(3,6-dimethyl-2,4-dioxo-1-(3-trifluoromethylphenyl)-1,2,3,4-tetrahydropyrimidin-5-yl)-1H-pyrazole-4-sulfonamide]
27 | 8.4 | Cc1c(-c2c(S(=O)(=O)O)cnn2-c2ccc(C#N)cc2)c(=O)n(C)c(=O)n1-c1cccc(C(F)(F)F)c1 [Example 196]
28 | 5.4 | CCCCC(=O)NS(=O)(=O)c1cnn(-c2ccc(C#N)cc2)c1-c1c(C)n(-c2cccc(C(F)(F)F)c2)c(=O)n(C)c1=O [Example 243]
29 | 18.7 | Cc1c(-c2ccnn2-c2ccc(C#N)cc2)c(=O)n(C(C)C(=O)N(C)C)c(=O)n1-c1cccc(C(F)(F)F)c1 (centres unmarked) [Example 379]
